Measured values: ChEMBL document CHEMBL4507319 (2021)

Key:
[1] = target: Mitogen-activated protein kinase 10 (Homo sapiens) (UniProt P53779); experiment: JNK3(h) Eurofins kinase panel; details: Compound concentration 1.0 uM
[2] = target: T1, Tyrosine-protein kinase ZAP-70 (Homo sapiens) (UniProt P43403); experiment: ZAP-70(h) Eurofins kinase panel; details: Compound concentration 1.0 uM
T1 sequence (whole entry): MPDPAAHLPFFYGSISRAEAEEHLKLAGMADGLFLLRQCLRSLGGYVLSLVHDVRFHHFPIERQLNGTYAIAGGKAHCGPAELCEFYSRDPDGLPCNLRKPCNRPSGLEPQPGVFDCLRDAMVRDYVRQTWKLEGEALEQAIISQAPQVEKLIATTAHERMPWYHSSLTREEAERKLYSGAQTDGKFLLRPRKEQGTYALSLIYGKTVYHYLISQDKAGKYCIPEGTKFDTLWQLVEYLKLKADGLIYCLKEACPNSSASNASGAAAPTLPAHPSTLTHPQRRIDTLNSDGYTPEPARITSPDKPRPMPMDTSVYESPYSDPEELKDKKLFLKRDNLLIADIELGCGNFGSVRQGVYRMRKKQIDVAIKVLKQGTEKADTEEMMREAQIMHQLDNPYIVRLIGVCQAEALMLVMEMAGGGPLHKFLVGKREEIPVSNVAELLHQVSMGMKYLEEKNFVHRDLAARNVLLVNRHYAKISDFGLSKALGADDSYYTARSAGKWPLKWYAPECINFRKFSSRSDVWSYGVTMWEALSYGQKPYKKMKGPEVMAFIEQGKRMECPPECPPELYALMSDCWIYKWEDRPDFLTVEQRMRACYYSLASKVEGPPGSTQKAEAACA

[3] = target: Serine/threonine-protein kinase SIK3 (Homo sapiens) (UniProt Q9Y2K2); experiment: SIK3(h) Eurofins kinase panel; details: Compound concentration 1.0 uM
[4] = target: T2, Inhibitor of nuclear factor kappa-B kinase subunit epsilon (Homo sapiens) (UniProt Q14164); experiment: IKKepsilon(h) Eurofins kinase panel; details: Compound concentration 1.0 uM
T2 sequence (whole entry): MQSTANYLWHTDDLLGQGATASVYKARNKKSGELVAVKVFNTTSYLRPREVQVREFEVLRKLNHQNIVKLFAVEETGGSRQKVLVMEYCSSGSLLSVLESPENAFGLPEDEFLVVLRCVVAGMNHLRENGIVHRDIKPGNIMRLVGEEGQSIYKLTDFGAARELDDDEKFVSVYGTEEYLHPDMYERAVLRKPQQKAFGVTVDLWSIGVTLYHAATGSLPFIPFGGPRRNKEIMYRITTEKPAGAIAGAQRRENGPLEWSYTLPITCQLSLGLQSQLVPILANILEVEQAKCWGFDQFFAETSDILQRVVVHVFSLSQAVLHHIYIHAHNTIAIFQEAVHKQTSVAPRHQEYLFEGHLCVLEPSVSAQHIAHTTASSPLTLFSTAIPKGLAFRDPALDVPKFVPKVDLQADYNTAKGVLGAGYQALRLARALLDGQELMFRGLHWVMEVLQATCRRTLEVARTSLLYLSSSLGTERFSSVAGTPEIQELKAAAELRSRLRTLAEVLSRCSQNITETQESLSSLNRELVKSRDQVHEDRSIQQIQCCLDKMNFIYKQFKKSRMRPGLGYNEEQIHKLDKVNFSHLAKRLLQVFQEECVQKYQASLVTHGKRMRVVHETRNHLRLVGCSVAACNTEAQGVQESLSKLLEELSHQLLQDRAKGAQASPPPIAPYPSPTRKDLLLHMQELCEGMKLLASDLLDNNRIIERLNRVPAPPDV

[5] = target: Ephrin type-A receptor 2 (Homo sapiens) (UniProt P29317); experiment: EphA2(h) Eurofins kinase panel; details: Compound concentration 1.0 uM
[6] = target: T3, Serine/threonine-protein kinase ULK2 (Homo sapiens) (UniProt Q8IYT8); experiment: ULK2(h) Eurofins kinase panel; details: Compound concentration 1.0 uM
T3 sequence (whole entry): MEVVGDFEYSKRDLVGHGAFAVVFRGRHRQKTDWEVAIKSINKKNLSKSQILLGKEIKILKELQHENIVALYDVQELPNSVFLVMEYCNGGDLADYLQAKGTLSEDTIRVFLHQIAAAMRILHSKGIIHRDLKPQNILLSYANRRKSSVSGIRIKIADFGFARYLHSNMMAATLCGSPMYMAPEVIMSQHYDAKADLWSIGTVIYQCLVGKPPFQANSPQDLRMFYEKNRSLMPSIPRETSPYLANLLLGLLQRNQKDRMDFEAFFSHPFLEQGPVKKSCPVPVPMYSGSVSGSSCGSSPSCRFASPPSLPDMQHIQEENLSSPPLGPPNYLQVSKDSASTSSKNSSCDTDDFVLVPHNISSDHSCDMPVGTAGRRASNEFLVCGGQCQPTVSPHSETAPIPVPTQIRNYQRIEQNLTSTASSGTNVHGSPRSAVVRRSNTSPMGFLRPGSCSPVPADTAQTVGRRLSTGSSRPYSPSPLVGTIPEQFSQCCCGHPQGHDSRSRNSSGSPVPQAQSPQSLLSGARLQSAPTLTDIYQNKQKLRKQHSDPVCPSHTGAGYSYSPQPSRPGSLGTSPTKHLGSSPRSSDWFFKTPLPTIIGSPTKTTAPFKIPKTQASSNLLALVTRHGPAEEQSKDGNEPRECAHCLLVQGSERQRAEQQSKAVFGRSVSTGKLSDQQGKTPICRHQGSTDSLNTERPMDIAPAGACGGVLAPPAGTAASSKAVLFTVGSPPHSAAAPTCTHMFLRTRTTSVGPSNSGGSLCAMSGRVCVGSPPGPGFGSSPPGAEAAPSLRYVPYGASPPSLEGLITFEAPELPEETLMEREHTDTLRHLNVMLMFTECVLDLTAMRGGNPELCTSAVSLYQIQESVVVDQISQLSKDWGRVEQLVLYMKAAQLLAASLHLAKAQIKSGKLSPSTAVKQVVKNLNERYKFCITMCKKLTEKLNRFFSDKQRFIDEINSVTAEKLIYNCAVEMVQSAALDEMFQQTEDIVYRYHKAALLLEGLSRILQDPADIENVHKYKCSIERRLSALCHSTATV

[7] = tested on: DU-145; experiment: DU-145 cell line Proliferation assay; assay type: functional, Homo sapiens; details: time 6 day
[8] = tested on: AMO1; experiment: AMO-1 cell line Proliferation assay; assay type: functional, Homo sapiens; details: time 3 day
[9] = target: Glycogen synthase kinase-3 alpha (Homo sapiens) (UniProt P49840); experiment: GSK3α(h) Eurofins kinase panel; details: Compound concentration 1.0 uM
[10] = target: Tyrosine-protein kinase receptor UFO (Homo sapiens) (UniProt P30530); experiment: Axl(h) Eurofins kinase panel; details: Compound concentration 1.0 uM
[11] = target: Mitogen-activated protein kinase kinase kinase kinase 4 (Homo sapiens) (UniProt O95819); experiment: MAP4K4(h) Eurofins kinase panel; details: Compound concentration 1.0 uM
Mitogen-activated protein kinase kinase kinase kinase 4 (Homo sapiens), sequence (O95819 2-1239 limits assumed): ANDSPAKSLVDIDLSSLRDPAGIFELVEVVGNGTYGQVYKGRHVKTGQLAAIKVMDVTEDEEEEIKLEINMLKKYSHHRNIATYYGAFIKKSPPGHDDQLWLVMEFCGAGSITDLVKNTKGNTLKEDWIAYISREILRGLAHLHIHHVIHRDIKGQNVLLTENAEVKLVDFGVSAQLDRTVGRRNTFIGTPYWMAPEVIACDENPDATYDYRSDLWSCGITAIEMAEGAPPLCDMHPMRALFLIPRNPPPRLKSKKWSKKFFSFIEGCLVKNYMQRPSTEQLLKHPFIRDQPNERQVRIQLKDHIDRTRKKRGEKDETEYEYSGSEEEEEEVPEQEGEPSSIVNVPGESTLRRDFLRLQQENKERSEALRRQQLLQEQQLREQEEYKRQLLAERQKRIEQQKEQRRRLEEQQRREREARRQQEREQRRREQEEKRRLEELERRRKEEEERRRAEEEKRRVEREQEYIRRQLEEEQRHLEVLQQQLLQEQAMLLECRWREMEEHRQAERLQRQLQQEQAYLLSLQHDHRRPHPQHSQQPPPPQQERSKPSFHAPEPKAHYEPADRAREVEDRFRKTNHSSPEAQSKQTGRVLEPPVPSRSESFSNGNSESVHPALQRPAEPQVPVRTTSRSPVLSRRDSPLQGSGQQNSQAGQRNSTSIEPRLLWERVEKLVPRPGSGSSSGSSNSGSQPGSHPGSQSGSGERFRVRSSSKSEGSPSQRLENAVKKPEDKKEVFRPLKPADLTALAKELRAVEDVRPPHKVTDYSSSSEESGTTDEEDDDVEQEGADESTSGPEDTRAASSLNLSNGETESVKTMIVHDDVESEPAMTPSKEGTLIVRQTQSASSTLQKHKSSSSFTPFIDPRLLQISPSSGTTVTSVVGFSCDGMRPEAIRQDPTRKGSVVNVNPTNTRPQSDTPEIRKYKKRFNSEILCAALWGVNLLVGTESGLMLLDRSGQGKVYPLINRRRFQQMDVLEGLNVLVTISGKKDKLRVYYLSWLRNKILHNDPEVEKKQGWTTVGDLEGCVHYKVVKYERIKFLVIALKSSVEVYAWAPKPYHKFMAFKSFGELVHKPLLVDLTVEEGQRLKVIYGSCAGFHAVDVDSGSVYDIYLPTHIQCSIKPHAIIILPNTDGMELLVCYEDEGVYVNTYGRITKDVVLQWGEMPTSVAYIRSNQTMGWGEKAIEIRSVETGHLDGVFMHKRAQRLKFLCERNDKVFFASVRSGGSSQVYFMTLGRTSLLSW

Mitogen-activated protein kinase 10 (Homo sapiens), sequence (P53779 whole entry): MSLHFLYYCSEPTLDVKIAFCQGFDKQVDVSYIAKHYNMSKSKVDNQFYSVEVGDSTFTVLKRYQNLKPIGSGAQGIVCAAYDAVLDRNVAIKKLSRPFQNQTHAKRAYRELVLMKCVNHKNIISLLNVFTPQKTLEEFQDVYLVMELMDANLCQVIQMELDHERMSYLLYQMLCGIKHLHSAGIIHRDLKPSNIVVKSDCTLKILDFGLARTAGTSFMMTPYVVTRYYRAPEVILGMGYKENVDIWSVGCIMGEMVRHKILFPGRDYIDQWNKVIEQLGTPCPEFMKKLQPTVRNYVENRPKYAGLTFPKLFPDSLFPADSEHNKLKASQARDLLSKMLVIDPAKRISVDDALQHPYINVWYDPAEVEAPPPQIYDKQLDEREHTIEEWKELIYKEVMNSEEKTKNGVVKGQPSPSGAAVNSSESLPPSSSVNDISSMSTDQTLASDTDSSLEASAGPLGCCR
Ephrin type-A receptor 2 (Homo sapiens), sequence (P29317 whole entry): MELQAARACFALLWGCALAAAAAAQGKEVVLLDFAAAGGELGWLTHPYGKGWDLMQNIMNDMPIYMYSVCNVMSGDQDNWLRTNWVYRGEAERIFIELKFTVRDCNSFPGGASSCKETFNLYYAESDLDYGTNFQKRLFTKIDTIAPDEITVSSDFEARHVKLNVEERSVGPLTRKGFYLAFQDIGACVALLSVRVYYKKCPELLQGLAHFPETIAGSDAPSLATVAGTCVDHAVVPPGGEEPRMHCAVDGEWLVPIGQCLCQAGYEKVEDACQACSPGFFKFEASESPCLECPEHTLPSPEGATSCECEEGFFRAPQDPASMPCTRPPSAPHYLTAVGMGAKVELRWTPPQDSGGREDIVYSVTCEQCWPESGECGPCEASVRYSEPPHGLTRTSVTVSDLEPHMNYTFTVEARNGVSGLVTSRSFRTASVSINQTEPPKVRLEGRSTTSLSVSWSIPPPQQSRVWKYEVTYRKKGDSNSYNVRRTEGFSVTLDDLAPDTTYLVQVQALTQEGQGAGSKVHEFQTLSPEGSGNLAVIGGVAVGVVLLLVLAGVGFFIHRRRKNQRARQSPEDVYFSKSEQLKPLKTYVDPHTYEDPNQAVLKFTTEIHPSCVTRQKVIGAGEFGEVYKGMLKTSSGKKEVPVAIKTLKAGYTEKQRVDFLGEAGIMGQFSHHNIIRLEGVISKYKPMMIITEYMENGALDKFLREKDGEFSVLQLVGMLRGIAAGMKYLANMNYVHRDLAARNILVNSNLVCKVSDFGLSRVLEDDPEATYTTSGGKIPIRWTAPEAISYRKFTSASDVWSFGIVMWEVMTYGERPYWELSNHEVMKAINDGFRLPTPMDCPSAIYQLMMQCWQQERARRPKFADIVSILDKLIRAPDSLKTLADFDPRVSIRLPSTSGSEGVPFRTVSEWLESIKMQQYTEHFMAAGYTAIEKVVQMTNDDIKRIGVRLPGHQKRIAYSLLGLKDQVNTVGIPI
Glycogen synthase kinase-3 alpha (Homo sapiens), sequence (P49840 2-483 limits assumed): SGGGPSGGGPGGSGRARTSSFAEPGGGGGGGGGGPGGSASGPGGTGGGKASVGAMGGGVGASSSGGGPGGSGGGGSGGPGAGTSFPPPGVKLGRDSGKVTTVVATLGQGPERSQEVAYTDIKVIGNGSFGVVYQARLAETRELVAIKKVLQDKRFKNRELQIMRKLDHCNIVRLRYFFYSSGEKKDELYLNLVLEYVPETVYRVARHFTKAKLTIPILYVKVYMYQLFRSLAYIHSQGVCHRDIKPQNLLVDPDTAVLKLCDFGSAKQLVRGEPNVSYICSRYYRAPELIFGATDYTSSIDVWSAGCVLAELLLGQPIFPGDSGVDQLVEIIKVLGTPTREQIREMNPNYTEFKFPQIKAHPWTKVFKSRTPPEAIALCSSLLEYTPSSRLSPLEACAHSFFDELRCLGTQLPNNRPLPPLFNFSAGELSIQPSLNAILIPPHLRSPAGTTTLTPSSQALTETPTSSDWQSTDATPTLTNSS
Serine/threonine-protein kinase SIK3 (Homo sapiens), sequence (Q9Y2K2 whole entry, looked up): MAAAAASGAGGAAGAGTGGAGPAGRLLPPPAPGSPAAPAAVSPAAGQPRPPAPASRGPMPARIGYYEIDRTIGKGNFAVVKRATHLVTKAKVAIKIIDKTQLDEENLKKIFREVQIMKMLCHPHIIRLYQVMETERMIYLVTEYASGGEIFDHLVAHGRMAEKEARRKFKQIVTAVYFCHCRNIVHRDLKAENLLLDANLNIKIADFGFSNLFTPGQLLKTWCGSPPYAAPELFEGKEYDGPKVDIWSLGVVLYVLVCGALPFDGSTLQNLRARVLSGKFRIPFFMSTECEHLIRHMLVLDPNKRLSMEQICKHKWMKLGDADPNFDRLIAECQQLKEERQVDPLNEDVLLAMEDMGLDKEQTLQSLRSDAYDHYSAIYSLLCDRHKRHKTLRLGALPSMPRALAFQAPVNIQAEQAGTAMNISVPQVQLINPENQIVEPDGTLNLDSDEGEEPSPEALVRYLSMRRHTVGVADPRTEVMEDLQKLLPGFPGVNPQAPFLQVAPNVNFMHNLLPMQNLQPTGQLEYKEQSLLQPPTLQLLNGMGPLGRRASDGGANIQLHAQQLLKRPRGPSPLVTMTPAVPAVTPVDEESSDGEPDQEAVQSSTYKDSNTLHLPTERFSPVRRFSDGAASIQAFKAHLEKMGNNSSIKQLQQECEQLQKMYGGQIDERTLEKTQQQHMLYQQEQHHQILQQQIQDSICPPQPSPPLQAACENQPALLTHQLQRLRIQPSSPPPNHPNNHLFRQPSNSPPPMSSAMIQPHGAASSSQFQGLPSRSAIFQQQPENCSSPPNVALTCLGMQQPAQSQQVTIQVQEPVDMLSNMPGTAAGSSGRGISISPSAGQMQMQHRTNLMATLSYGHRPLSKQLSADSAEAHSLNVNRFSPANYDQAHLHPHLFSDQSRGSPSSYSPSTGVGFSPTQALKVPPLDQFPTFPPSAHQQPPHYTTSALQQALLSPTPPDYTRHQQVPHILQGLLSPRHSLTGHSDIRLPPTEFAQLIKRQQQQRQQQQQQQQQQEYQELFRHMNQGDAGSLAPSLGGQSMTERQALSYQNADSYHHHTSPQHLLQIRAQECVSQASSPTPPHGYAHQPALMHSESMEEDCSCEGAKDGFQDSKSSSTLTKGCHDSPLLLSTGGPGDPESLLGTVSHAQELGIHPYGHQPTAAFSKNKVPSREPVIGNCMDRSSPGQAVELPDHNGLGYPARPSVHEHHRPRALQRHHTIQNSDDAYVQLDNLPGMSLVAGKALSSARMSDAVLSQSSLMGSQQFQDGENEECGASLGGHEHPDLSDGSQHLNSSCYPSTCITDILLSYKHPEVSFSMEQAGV

Q: With `CCc1ccccc1C(=O)Nc1n[nH]c2c(C)c(F)c(C3C(C#N)=C(C)N(C)C(C)=C3C#N)cc12` [BAY-3827] as the compound, how does the % residual kinase activity [1] read?
A: 72%

Q: And the % residual kinase activity [2]?
A: 119%

Q: And the % residual kinase activity [3]?
A: 84%

Q: What about the % residual kinase activity [4] of the same compound?
A: 108%

Q: What about the % residual kinase activity [5] of the same compound?
A: 88%

Q: What about the % residual kinase activity [6] of the same compound?
A: 84%

Q: What about the “Cell Proliferation IC50” value [7] of the same compound?
A: >10 µM

Q: And the “Cell Proliferation IC50” value [8]?
A: >33 µM

Q: And the % residual kinase activity [9]?
A: 83%

Q: And the % residual kinase activity [10]?
A: 100%

Q: And the % residual kinase activity [11]?
A: 91%
